Test results from ChEMBL document CHEMBL4330132, “5-Keto-3-cyano-2,4-diaminothiophenes as selective maternal embryonic leucine zipper kinase inhibitors” (Bioorg Med Chem Lett, 2019).

Tests used:
[1] = target: Maternal embryonic leucine zipper kinase (Homo sapiens, UniProt Q14680); assay: Inhibition of recombinant human MELK expressed in Escherichia coli using ZIPtide as substrate measured after 0.5 hrs by ADP-Glo assay
[2] = test system: Tyrosine-protein kinase ABL1 (Homo sapiens), P00519 [Q252H]; assay: Binding affinity to human non-phosphorylated ABL1 Q252H mutant (S229 to K512 residues) expressed in mammalian expression system assessed as residual binding level at 1 uM by Kinomescan method relative to control
[3] = target: ALK tyrosine kinase receptor (Homo sapiens) (UniProt Q9UM73); assay: Binding affinity to wild-type human partial length ALK (I1088 to E1409 residues) expressed in mammalian expression system assessed as residual binding level at 1 uM by Kinomescan method relative to control
[4] = target: Calcium/calmodulin-dependent protein kinase type II subunit beta (Homo sapiens) (UniProt Q13554); assay: Binding affinity to wild-type human partial length CAMK2B (M1 to Q380 residues) expressed in bacterial expression system assessed as residual binding level at 1 uM by Kinomescan method relative to control
[5] = target: Calcium/calmodulin-dependent protein kinase type II subunit delta (Homo sapiens) (UniProt Q13557); assay: Binding affinity to wild-type human partial length CAMK2D (M1 to E329 residues) expressed in bacterial expression system assessed as residual binding level at 1 uM by Kinomescan method relative to control
[6] = target: Ephrin type-A receptor 6 (Homo sapiens) (UniProt Q9UF33); assay: Binding affinity to wild-type human partial length EPHA6 (Y700 to E1046 residues) expressed in bacterial expression system assessed as residual binding level at 1 uM by Kinomescan method relative to control
[7] = target: Mitogen-activated protein kinase 3 (Homo sapiens) (UniProt P27361); assay: Binding affinity to wild-type human full length ERK1 (M1 to P379 residues) expressed in bacterial expression system assessed as residual binding level at 1 uM by Kinomescan method relative to control
[8] = target: Mitogen-activated protein kinase 1 (Homo sapiens) (UniProt P28482); assay: Binding affinity to wild-type human full length ERK2 (M1 to S360 residues) expressed in bacterial expression system assessed as residual binding level at 1 uM by Kinomescan method relative to control
[9] = target: Mitogen-activated protein kinase 6 (Homo sapiens) (UniProt Q16659); assay: Binding affinity to wild-type human partial length ERK3 (M1 to P413 residues) expressed in bacterial expression system assessed as residual binding level at 1 uM by Kinomescan method relative to control
[10] = target: Mitogen-activated protein kinase 4 (Homo sapiens) (UniProt P31152); assay: Binding affinity to wild-type human partial length ERK4 (M1 to L365 residues) expressed in bacterial expression system assessed as residual binding level at 1 uM by Kinomescan method relative to control
[11] = target: Fibroblast growth factor receptor 2 (Homo sapiens) (UniProt P21802); assay: Binding affinity to wild-type human partial length FGFR2 (D457 to E769 residues) expressed in bacterial expression system assessed as residual binding level at 1 uM by Kinomescan method relative to control
[12] = test system: Receptor-type tyrosine-protein kinase FLT3 (Homo sapiens), P36888 [R834Q]; assay: Binding affinity to human partial length FLT3 R834Q mutant (V592 to Y969 residues) expressed in mammalian expression system assessed as residual binding level at 1 uM by Kinomescan method relative to control
[13] = target: Insulin receptor (Homo sapiens) (UniProt P06213); assay: Binding affinity to wild-type human partial length INSR (P997 to E1318 residues) expressed in mammalian expression system assessed as residual binding level at 1 uM by Kinomescan method relative to control
[14] = target: Tyrosine-protein kinase JAK2 (Homo sapiens) (UniProt O60674); assay: Binding affinity to wild-type human partial length JAK2 JH1 catalytic domain (A829 to G1132 residues) expressed in mammalian expression system assessed as residual binding level at 1 uM by Kinomescan method relative to control
[15] = test system: Mast/stem cell growth factor receptor Kit (Homo sapiens), P10721 [A829P]; assay: Binding affinity to human partial length KIT A829P mutant (I571 to D952 residues) expressed in mammalian expression system assessed as residual binding level at 1 uM by Kinomescan method relative to control
[16] = target: Mitogen-activated protein kinase kinase kinase 13 (Homo sapiens) (UniProt O43283); assay: Binding affinity to wild-type human full length LZK (M1 to W966 residues) expressed in mammalian expression system assessed as residual binding level at 1 uM by Kinomescan method relative to control
[17] = target: Mitogen-activated protein kinase kinase kinase 3 (Homo sapiens) (UniProt Q99759); assay: Binding affinity to wild-type human partial length MAP3K3 (E320 to Y626 residues) expressed in mammalian expression system assessed as residual binding level at 1 uM by Kinomescan method relative to control
[18] = target: Misshapen-like kinase 1 (Homo sapiens) (UniProt Q8N4C8); assay: Binding affinity to wild-type human partial length MINK (M1 to K312 residues) expressed in mammalian expression system assessed as residual binding level at 1 uM by Kinomescan method relative to control
[19] = target: Serine/threonine-protein kinase Nek5 (Homo sapiens) (UniProt Q6P3R8); assay: Binding affinity to wild-type human partial length NEK5 (M1 to M279 residues) expressed in bacterial expression system assessed as residual binding level at 1 uM by Kinomescan method relative to control
[20] = target: Phosphorylase b kinase gamma catalytic chain, skeletal muscle/heart isoform (Homo sapiens) (UniProt Q16816); assay: Binding affinity to wild-type human full length PHKG1 (M1 to Y387 residues) expressed in bacterial expression system assessed as residual binding level at 1 uM by Kinomescan method relative to control
[21] = target: Receptor-interacting serine/threonine-protein kinase 2 (Homo sapiens) (UniProt O43353); assay: Binding affinity to wild-type human partial length RIPK2 (M1 to K310 residues) expressed in bacterial expression system assessed as residual binding level at 1 uM by Kinomescan method relative to control
[22] = target: Proto-oncogene tyrosine-protein kinase ROS (Homo sapiens) (UniProt P08922); assay: Binding affinity to wild-type human partial length ROS1 (A1921 to N2240 residues) expressed in bacterial expression system assessed as residual binding level at 1 uM by Kinomescan method relative to control
[23] = target: Ribosomal protein S6 kinase alpha-2 (Homo sapiens) (UniProt Q15349); assay: Binding affinity to wild-type human partial length C-terminal RSK3 kinase domain 2 (V403 to K700 residues) expressed in bacterial expression system assessed as residual binding level at 1 uM by Kinomescan method relative to control
[24] = target: SNF-related serine/threonine-protein kinase (Homo sapiens) (UniProt Q9NRH2); assay: Binding affinity to wild-type human partial length SNRK (M1 to E339 residues) expressed in mammalian expression system assessed as residual binding level at 1 uM by Kinomescan method relative to control
[25] = target: Serine/threonine-protein kinase 32B (Homo sapiens) (UniProt Q9NY57); assay: Binding affinity to wild-type human full length YANK2 (M1 to S414 residues) expressed in bacterial expression system assessed as residual binding level at 1 uM by Kinomescan method relative to control
Serine/threonine-protein kinase 32B (Homo sapiens), sequence (Q9NY57 whole entry, the tested form may be a part): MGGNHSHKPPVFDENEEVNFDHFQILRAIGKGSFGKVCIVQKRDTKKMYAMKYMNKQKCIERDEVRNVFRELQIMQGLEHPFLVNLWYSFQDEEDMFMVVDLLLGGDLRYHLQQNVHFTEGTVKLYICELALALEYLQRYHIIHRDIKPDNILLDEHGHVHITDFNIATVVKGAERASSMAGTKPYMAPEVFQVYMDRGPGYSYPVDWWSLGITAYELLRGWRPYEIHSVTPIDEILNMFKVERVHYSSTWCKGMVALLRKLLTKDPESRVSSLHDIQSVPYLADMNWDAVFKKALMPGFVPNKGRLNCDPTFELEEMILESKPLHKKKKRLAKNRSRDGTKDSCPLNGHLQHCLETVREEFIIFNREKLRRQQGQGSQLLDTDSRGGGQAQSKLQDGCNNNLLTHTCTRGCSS

ALK tyrosine kinase receptor (Homo sapiens), sequence (Q9UM73 19-1620 limits assumed): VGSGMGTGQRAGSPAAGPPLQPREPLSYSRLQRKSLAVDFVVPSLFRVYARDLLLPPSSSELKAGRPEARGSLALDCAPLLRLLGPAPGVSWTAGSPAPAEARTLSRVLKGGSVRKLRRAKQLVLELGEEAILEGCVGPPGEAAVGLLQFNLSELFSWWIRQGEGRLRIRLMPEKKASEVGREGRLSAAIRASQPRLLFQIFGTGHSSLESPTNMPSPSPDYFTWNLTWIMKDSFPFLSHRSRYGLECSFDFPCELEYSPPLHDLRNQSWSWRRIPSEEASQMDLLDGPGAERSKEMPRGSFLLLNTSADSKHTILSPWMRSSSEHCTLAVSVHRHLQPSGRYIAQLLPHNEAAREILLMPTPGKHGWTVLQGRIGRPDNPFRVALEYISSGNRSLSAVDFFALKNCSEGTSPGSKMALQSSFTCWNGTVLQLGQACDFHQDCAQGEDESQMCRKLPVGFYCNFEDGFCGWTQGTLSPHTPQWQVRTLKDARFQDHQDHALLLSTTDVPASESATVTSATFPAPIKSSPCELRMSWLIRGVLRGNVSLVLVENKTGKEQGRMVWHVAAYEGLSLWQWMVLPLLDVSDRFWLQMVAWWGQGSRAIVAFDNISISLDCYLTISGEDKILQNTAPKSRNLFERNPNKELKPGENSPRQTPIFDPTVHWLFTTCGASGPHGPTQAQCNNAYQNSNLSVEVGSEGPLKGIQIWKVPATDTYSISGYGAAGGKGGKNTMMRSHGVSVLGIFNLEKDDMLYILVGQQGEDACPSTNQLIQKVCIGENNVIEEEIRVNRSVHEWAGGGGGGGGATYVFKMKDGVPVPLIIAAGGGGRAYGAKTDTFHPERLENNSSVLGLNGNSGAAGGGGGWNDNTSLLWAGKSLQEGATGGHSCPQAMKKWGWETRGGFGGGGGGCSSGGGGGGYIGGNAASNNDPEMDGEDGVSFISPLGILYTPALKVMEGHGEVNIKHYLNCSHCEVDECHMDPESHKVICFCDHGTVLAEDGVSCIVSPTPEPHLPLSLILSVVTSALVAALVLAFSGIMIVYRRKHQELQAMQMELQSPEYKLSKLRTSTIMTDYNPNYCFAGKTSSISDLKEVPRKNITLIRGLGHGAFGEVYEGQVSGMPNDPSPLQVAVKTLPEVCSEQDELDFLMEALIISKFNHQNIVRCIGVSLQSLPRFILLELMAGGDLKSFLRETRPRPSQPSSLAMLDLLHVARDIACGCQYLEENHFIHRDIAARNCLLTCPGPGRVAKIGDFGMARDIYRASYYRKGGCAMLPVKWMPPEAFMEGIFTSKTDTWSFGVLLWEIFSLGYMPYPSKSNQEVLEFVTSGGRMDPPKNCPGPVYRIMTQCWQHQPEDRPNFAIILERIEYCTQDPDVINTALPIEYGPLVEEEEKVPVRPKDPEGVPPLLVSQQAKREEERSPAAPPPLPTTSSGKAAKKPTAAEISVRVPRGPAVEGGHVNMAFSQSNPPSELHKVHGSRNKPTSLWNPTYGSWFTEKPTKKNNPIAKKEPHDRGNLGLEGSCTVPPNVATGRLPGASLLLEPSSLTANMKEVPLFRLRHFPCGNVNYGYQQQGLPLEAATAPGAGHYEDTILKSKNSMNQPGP
Mitogen-activated protein kinase 4 (Homo sapiens), sequence (P31152 whole entry, the tested form may be a part): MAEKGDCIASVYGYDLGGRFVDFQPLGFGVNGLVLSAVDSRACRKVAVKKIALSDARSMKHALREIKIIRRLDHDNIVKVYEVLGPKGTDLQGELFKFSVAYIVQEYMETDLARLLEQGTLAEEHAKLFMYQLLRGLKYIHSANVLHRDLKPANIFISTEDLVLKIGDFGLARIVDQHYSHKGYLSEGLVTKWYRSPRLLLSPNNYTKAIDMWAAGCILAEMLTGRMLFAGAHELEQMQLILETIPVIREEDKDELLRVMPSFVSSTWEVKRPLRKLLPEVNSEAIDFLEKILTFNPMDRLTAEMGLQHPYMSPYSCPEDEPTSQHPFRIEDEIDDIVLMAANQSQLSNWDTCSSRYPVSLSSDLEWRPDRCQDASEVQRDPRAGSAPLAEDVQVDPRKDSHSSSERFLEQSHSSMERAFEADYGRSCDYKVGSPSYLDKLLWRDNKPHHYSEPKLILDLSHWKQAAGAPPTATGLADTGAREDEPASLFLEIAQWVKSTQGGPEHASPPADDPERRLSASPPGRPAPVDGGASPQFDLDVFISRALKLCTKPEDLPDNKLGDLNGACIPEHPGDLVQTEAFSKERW
Mitogen-activated protein kinase kinase kinase 3 (Homo sapiens), sequence (Q99759 whole entry, the tested form may be a part): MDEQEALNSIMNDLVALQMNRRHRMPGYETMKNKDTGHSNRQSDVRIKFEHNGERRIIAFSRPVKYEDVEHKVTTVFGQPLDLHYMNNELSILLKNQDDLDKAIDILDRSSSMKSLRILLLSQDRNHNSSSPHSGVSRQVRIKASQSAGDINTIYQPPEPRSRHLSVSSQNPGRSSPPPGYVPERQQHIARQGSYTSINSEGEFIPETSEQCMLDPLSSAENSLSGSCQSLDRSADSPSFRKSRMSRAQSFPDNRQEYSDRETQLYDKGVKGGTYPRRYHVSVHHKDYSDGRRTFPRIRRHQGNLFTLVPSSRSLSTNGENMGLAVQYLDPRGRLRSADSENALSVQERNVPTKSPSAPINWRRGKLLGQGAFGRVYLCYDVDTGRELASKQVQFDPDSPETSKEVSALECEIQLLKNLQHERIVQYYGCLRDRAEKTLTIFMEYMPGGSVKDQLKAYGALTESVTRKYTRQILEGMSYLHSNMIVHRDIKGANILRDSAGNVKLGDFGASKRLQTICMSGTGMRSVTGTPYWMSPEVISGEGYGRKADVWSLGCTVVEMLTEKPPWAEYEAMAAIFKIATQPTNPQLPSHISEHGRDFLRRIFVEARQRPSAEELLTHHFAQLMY
Phosphorylase b kinase gamma catalytic chain, skeletal muscle/heart isoform (Homo sapiens), sequence (Q16816 whole entry, looked up, the tested form may be a part, canonical isoform): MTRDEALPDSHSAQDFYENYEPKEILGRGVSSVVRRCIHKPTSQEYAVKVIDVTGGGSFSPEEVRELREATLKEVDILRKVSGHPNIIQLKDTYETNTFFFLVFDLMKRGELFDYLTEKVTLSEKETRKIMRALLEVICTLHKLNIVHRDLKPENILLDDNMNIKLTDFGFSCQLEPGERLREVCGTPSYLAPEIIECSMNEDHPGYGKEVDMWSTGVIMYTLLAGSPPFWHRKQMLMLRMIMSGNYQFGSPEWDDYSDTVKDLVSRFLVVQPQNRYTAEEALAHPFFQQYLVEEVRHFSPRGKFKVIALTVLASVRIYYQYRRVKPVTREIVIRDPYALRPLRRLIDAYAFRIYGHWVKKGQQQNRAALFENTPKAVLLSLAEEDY
Calcium/calmodulin-dependent protein kinase type II subunit beta (Homo sapiens), sequence (Q13554 whole entry, the tested form may be a part): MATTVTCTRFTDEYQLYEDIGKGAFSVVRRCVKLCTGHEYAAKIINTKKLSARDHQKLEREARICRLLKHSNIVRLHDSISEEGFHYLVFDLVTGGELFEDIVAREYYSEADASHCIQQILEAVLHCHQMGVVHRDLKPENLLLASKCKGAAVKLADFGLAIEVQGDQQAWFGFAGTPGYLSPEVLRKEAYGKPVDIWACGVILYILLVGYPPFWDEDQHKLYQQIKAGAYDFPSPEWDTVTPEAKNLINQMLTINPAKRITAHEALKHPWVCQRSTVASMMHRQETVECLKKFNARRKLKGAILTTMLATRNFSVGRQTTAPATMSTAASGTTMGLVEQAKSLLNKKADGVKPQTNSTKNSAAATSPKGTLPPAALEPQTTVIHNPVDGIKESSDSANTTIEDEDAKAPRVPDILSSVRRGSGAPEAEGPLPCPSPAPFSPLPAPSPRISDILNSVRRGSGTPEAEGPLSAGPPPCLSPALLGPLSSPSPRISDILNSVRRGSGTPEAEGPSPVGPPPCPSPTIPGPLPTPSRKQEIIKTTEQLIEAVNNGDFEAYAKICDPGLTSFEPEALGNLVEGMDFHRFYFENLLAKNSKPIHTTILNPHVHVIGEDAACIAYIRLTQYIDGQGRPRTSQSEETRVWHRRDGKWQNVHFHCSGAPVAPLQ
Ribosomal protein S6 kinase alpha-2 (Homo sapiens), sequence (Q15349 whole entry, the tested form may be a part): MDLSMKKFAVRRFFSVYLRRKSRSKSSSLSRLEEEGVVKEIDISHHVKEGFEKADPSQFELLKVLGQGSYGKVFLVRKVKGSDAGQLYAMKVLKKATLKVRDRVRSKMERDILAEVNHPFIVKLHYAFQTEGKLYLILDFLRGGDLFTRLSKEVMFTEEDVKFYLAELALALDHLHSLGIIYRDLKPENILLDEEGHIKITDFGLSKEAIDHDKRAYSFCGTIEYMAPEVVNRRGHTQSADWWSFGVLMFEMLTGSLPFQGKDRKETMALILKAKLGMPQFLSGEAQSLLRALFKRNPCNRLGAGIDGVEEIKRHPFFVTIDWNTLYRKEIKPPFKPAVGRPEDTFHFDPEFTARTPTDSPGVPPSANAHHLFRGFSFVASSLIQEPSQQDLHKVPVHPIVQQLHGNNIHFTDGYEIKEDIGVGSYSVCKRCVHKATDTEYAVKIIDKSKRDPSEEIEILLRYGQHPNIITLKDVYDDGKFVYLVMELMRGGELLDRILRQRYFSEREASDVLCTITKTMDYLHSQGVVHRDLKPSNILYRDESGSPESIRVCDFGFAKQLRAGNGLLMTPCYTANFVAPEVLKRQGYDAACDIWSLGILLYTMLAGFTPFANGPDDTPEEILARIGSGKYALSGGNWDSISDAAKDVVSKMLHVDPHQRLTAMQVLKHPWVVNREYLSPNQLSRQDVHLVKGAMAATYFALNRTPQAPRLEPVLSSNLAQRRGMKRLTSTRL

Compound: CC(C)Nc1sc(C(=O)c2ccc(Cl)s2)c(N)c1C#N
- IC50 [1]: 192 nM
- Activity [2]: 100%
- Activity [3]: 100%
- Activity [4]: 60%
- Activity [5]: 79%
- Activity [6]: 86%
- Activity [7]: 95%
- Activity [8]: 100%
- Activity [9]: 100%
- Activity [10]: 89%
- Activity [11]: 99%
- Activity [12]: 99%
- Activity [13]: 80%
- Activity [14]: 100%
- Activity [15]: 66%
- Activity [16]: 92%
- Activity [17]: 100%
- Activity [18]: 55%
- Activity [19]: 91%
- Activity [20]: 89%
- Activity [21]: 82%
- Activity [22]: 82%
- Activity [23]: 98%
- Activity [24]: 91%
- Activity [25]: 100%
